# Data: PubChem BioAssay (NCI)
#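 Cells were grown in 96-well plates and exposed to each compound for 48 hours at five concentrations; endpoints were interpolated linearly between bracketing concentrations, or set to the highest concentration if not reached. Here, GI50 denotes the concentration required for 50% inhibition of growth. The concentration for full growth arrest is given as TGI.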
# Assays:
# Experiment in all cases: growth of human tumour cells (NCI), 48 h
# [1] = test system: SF-268 CNS
# [2] = test system: EKVX NSCLC
# [3] = test system: HOP-92 NSCLC
# [4] = test system: HOP-62 NSCLC
# [5] = test system: SW-620 colon
# [6] = test system: NCI-H522 lung
# [7] = test system: A498 renal
# [8] = test system: TK-10 renal
# [9] = test system: NCI-H23 lung
# [10] = test system: CCRF-CEM leukemia
# [11] = test system: SK-MEL-2 melanoma
# [12] = test system: DU-145 prostate
# [13] = test system: OVCAR-4 ovarian
# [14] = test system: UACC-257 melanoma
# [15] = test system: 786-0 renal
# [16] = test system: MCF7 breast
# [17] = test system: K-562 leukemia
# [18] = test system: MDA-MB-435
# [19] = test system: BT-549 breast
# [20] = test system: KM12 colon
# [21] = test system: PC-3 prostate
# [22] = test system: SK-MEL-28 melanoma
# [23] = test system: U251 CNS
# [24] = test system: RPMI-8226 leukemia
# [25] = test system: HS 578T breast
# [26] = test system: SN12C renal
# [27] = test system: OVCAR-5 ovarian
# [28] = test system: RXF 393 renal
# [29] = test system: SF-539 CNS
# [30] = test system: CAKI-1 renal
# [31] = test system: HL-60(TB) leukemia
# [32] = test system: NCI-H460 lung
# [33] = test system: HT29 colon
# [34] = test system: MALME-3M melanoma
# [35] = test system: HCT-116 colon
# [36] = test system: A549 NSCLC
# [37] = test system: NCI-H226 lung
# [38] = test system: LOX IMVI melanoma
# [39] = test system: OVCAR-8 ovarian
# [40] = test system: SK-OV-3 ovarian
# [41] = test system: SNB-75 CNS
# [42] = test system: ACHN renal
# [43] = test system: UACC-62 melanoma
# [44] = test system: MDA-MB-468 breast
# [45] = test system: SF-295 CNS
# [46] = test system: COLO 205 colon
# [47] = test system: M14 melanoma
# [48] = test system: OVCAR-3 ovarian
# [49] = test system: SK-MEL-5 melanoma
# [50] = test system: HCT-15 colon
# [51] = test system: HCC-2998 colon
# [52] = test system: MOLT-4 leukemia
# [53] = test system: IGROV1 ovarian
smiles,measurement,setting,value
C=C1CC[C@@H]2[C@]3(C)COC(c4cn[nH]c4-c4cccc(Cl)c4)O[C@@H]3CC[C@@]2(C)[C@@H]1C/C=C1/C(=O)OCC1O (stereo partly specified),GI50,[1],17.3 µM
same,TGI,[1],41.4 µM
same,GI50,[2],3.68 µM
same,TGI,[2],13.9 µM
same,GI50,[3],4.29 µM
same,TGI,[3],22.3 µM
same,GI50,[4],15.3 µM
same,TGI,[4],32 µM
same,GI50,[5],2350 nM
same,TGI,[5],5.96 µM
same,GI50,[6],1750 nM
same,TGI,[6],3.59 µM
same,GI50,[7],18.5 µM
same,TGI,[7],32.6 µM
same,GI50,[8],12.4 µM
same,TGI,[8],25.7 µM
same,GI50,[9],4.36 µM
same,TGI,[9],15.9 µM
same,GI50,[10],2700 nM
same,TGI,[10],11.4 µM
same,GI50,[11],2710 nM
same,TGI,[11],8.53 µM
same,GI50,[12],5.01 µM
same,TGI,[12],19.5 µM
same,GI50,[13],4.4 µM
same,TGI,[13],45.7 µM
same,GI50,[14],11.2 µM
same,TGI,[14],27 µM
same,GI50,[15],3.36 µM
same,TGI,[15],11.7 µM
same,GI50,[16],2060 nM
same,TGI,[16],9.16 µM
same,GI50,[17],2410 nM
same,TGI,[17],10.5 µM
same,GI50,[18],2470 nM
same,TGI,[18],7.62 µM
same,GI50,[19],2360 nM
same,TGI,[19],6.03 µM
same,GI50,[20],3.29 µM
same,TGI,[20],13.1 µM
same,GI50,[21],4.08 µM
same,TGI,[21],30.7 µM
same,GI50,[22],1980 nM
same,TGI,[22],4.05 µM
same,GI50,[23],2150 nM
same,TGI,[23],5.29 µM
same,GI50,[24],2250 nM
same,TGI,[24],7.02 µM
same,GI50,[25],9.04 µM
same,TGI,[25],62.7 µM
same,GI50,[26],2940 nM
same,TGI,[26],10.5 µM
same,GI50,[27],3.63 µM
same,TGI,[27],14 µM
same,GI50,[28],1730 nM
same,TGI,[28],3.24 µM
same,GI50,[29],1770 nM
same,TGI,[29],3.36 µM
same,GI50,[30],4 µM
same,TGI,[30],14.6 µM
same,GI50,[31],2910 nM
same,TGI,[31],16.3 µM
same,GI50,[32],8.87 µM
same,TGI,[32],25.6 µM
same,GI50,[33],2700 nM
same,TGI,[33],6.8 µM
same,GI50,[34],1840 nM
same,TGI,[34],4.26 µM
same,GI50,[35],1840 nM
same,TGI,[35],3.93 µM
same,GI50,[36],9.73 µM
same,TGI,[36],30.4 µM
same,GI50,[37],1660 nM
same,TGI,[37],3.21 µM
same,GI50,[38],1440 nM
same,TGI,[38],2830 nM
same,GI50,[39],2390 nM
same,TGI,[39],7.7 µM
same,GI50,[40],16 µM
same,TGI,[40],35.1 µM
same,GI50,[41],2410 nM
same,TGI,[41],12.3 µM
same,GI50,[42],2470 nM
same,TGI,[42],6.95 µM
same,GI50,[43],1690 nM
same,TGI,[43],3.62 µM
same,GI50,[44],1880 nM
same,TGI,[44],4.97 µM
same,GI50,[45],4.27 µM
same,TGI,[45],16.1 µM
same,GI50,[46],4.85 µM
same,TGI,[46],19.5 µM
same,GI50,[47],2190 nM
same,TGI,[47],5.88 µM
same,GI50,[48],1930 nM
same,TGI,[48],3.77 µM
same,GI50,[49],2270 nM
same,TGI,[49],5.37 µM
same,GI50,[50],1790 nM
same,TGI,[50],3.81 µM
same,GI50,[51],3.49 µM
same,TGI,[51],11.5 µM
same,GI50,[52],3.83 µM
same,TGI,[52],18.2 µM
same,GI50,[53],4.14 µM
same,TGI,[53],15.8 µM
